For series [1], the system named is Male C57BL/6 mice. As to the kind of experiment: Mouse MPTP induced neurotoxicity (striatal dopamine depletion). In kind it is in vivo. The note with it: 30 minutes before each MPTP injection, striata seven days after MPTP. As to the method: The mouse MPTP model is generally used as a model of Parkinson's disease.
Male C57BL/6 mice received four intraperitoneal injections of MPTP.HCl (15 mg of free base per kg; Research Biochemicals) in saline at 2 hour intervals. Control mice received saline only. The test-compound was administered as four subcutaneous injections in olive oil at 2 hour intervals, 30 minutes before each MPTP injection.
Seven days after MPTP injection the mice were sacrificed and the striata dissected out, immediately frozen, and stored at −80° C. until analysis. On the day of assay issue samples were sonicated in 10 volume (wt./vol.) of 0.1 M perchloric acid containing 1.9 mM sodium hydrosulfite and 1.6 mg/ml DBA-HBr. After centrifugation (2800 g, 10 min at room temperature) and filtration (pore size 0.5 μm, Millipore), the supernatant was transferred to a vial and placed in the automatic sampler (M231XL, Gilson). Dopamine content was measured by high performance liquid chromatography. A compound of formula (I) produced 75% protection against dopamine depletion when dosed at 3 mg/kg (×4) and 98% protection when dosed at 10 mg/kg (×4).

Series [2] concerns the target recombinant human brain type IIA Na+ channel expressed in Chinese hamster ovary cells (Homo sapiens, UniProt Q99250). As to the kind of experiment: Whole-cell voltage-clamp on voltage-gated sodium channels.
The subject of series [3] is rat. As to the kind of experiment: Rat intraplantar carrageenan model of hyperalgesia and inflammation. Format: in vivo. The settings on record: oral; for ED50: Rattus norvegicus, 30 minutes prior to carrageenan (100 μl of 2% intraplantar), read at three hours, read-out: ED50 for inhibition of the carrageenan-induced reduction in weight bearing. As to the method: Three hours after intraplantar carrageenan administration (100 μl of 2%) in the rat there is a reduction in weight bearing on the inflamed paw and an increase in paw volume consistent with acute hyperalgesia and inflammation.

Series [4] relates to male Han Wistar rats. As to the kind of experiment: Rat maximal electroshock test (MES). The note with it: oral, 2 hr prior to test; for ED50: Rattus norvegicus, suspension in 0.25% methylcellulose, 200 mA, 200 millisec, read-out: MES ED50 (hind limb extension); for therapeutic index (ratio of the ataxia ED50 and MES ED50): rat. In kind it is in vivo. As to the method:
For example, male Han Wistar rats (150-200 grms) were dosed orally with a suspension of the test compound in 0.25% methylcellulose 2 hr prior to test. A visual observation is carried out just prior to testing for the presence of ataxia. Using auricular electrodes a current of 200 mA, duration 200 millisec, is applied and the presence or absence of hind limb extension noted.

In series [5] the test system is mouse. As to the kind of experiment: Mouse pentylenetetrazol infusion test. In kind it is in vivo. The note with it: 1 h, read-out: ED50 in pentylenetetrazol infusion test (time to second twitch).

Sequence of recombinant human brain type IIA Na+ channel expressed in Chinese hamster ovary cells (Q99250 whole entry): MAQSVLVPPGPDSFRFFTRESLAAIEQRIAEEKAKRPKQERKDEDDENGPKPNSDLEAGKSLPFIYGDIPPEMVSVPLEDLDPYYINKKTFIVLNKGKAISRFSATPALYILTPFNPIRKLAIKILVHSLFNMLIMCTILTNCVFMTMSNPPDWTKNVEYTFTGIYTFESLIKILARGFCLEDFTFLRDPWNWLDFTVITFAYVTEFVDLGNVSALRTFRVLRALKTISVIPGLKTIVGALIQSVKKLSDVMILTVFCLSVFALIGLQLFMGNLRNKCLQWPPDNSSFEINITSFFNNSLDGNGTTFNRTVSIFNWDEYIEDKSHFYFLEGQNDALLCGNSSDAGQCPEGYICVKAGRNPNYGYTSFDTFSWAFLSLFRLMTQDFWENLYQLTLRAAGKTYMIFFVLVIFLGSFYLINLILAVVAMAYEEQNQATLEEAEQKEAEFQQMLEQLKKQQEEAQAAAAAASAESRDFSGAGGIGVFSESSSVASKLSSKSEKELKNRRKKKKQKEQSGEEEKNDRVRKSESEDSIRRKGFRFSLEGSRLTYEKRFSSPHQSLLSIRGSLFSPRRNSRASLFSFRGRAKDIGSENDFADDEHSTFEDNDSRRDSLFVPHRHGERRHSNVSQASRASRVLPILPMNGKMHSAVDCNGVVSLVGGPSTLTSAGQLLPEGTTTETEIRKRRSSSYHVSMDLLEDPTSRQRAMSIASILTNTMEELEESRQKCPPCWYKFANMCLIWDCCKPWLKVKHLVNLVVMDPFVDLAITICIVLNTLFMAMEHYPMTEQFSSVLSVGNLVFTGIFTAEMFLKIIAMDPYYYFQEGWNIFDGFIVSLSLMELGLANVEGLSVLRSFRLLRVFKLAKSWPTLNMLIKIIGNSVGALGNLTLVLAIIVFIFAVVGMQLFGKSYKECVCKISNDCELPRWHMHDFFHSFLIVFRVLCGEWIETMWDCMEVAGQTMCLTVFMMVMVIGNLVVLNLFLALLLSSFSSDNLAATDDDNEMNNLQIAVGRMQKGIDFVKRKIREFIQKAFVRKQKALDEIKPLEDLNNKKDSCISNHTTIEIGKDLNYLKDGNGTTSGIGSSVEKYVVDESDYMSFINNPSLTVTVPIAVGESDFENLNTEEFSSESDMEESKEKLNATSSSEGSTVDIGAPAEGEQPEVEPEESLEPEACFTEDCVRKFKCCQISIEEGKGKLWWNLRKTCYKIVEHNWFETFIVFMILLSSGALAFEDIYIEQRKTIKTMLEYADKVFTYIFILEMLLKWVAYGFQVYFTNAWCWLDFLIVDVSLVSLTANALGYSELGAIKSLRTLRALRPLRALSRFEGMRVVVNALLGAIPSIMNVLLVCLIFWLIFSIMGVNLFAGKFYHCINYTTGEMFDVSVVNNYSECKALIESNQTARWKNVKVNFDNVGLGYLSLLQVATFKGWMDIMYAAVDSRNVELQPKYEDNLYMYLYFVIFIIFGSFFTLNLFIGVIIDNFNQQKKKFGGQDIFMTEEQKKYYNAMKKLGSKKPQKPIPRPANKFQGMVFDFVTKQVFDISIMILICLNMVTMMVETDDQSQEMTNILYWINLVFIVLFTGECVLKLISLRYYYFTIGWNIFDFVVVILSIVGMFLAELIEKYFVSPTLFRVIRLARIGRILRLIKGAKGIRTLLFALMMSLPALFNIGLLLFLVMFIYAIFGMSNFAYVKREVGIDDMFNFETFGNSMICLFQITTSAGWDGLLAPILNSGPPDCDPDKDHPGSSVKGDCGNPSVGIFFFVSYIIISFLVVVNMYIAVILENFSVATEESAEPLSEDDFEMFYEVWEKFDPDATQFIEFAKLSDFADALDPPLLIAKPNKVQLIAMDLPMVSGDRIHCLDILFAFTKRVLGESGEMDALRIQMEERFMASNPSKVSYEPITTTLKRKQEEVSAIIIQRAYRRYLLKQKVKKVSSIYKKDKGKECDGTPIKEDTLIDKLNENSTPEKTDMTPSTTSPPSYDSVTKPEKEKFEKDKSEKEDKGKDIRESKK

For `Nc1ncnnc1-c1cc(Cl)cc(Cl)c1Cl` [compound of formula (I), 5-amino-6-[2,3,5-trichlorophenyl]-1,2,4-triazine], the results for the “protection against dopamine depletion” value in series [1] (3 mg/kg (×4) subcutaneous) and in series [1] (10 mg/kg (×4) subcutaneous) were 75% and 98%, respectively. The IC50 (in general, the concentration that gives 50% inhibition) in series [2] was determined as 785 µM. Moreover, in series [2], the “state selectivity (potency at inactivated state versus resting state)” value is recorded as “approximately 70 fold”. The “reduction in paw volume (anti-inflammatory activity)” value in series [3] (30 mg/kg, 30 minutes prior to carrageenan) came out at 50%. Further, the ED50 (commonly the dose that gives a 50% effect, or the effect in half of the subjects) came to 7.5 mg/kg in series [3], 1.7 mg/kg in series [4] and 3.8 mg/kg in series [5]. For the same compound, in series [4], the “therapeutic index (ratio of the ataxia ED50 and MES ED50)” value is 23.7.

For the compound `Nc1nnc(-c2cccc(Cl)c2Cl)c(N)n1` [lamotrigine, 3,5diamino-6-(2,3dichlorophenyl)-1,2,4-triazine, reference compound], the “state selectivity (potency at inactivated state versus resting state)” value in series [2] is “approximately 30 fold”. Besides, the median effective dose (ED50) in series [3] was 23.5 mg/kg; in series [4], 6.1 mg/kg; in series [5], 8.4 mg/kg. Also, in series [4], the “therapeutic index (ratio of the ataxia ED50 and MES ED50)” value was determined as 3.3.

These data come from patent US6465461B1, “Triazine compounds for treatment of CNS disorders” (SmithKline Beecham Corporation, priority 1997, dated 2002).
